Molecules are shown by their SMILES. The source made the active and inactive calls. No cut-off for these calls is given here. Where only a bound is given, the exact number is not on record here.

Experiment [1] deals with MM1.S. Put plainly: Induction of apoptosis in human MM1.S cells assessed as late apoptotic cells measured after 48 hrs by annevxinV/FITC-propidium iodide staining based flow cytometry (reference value: 2.09 %). In kind it is functional. (A flow cytometer gives signals particle by particle.)
In experiment [2] the test system is MM1.S. Put plainly: Induction of apoptosis in human MM1.S cells assessed as necrotic cells measured after 48 hrs by annevxinV/FITC-propidium iodide staining based flow cytometry (reference value: 0.19 %). The class given is functional.
The test system of experiment [3] is NCI-H929. Put plainly: Upregulation of YAP1 protein level in human NCI-H929 cells at 1 uM measured after 24 hrs by Western blot analysis. The class given is functional, cell-based.
The subject of experiment [4] is NCI-H929. As to the kind of experiment: Upregulation of BAX protein level in human NCI-H929 cells at 1 uM measured after 24 hrs by Western blot analysis. The class given is functional, cell-based. On the technique in general: Immunoblotting shows a protein as a band on a membrane.
Experiment [5] has as its target Casein kinase I isoform delta (Homo sapiens) (UniProt P48730). As to the kind of experiment: Inhibition of CK1d in human NCI-H929 cells at 10 uM by mass spectroscopic analysis relative to control. The class given is cell-based.
Experiment [6] deals with Casein kinase I isoform epsilon (Homo sapiens) (UniProt P49674). As to the kind of experiment: Inhibition of CK1e in human NCI-H929 cells at 10 uM by mass spectroscopic analysis relative to control. In kind it is cell-based.
The target in experiment [7] is Dual specificity protein kinase CLK2 (Homo sapiens) (UniProt P49760). Put plainly: Inhibition of CLK2 in human NCI-H929 cells at 10 uM by mass spectroscopic analysis relative to control. In kind it is cell-based.
Sequence of Dual specificity protein kinase CLK2 (Homo sapiens) (P49760 whole entry, looked up): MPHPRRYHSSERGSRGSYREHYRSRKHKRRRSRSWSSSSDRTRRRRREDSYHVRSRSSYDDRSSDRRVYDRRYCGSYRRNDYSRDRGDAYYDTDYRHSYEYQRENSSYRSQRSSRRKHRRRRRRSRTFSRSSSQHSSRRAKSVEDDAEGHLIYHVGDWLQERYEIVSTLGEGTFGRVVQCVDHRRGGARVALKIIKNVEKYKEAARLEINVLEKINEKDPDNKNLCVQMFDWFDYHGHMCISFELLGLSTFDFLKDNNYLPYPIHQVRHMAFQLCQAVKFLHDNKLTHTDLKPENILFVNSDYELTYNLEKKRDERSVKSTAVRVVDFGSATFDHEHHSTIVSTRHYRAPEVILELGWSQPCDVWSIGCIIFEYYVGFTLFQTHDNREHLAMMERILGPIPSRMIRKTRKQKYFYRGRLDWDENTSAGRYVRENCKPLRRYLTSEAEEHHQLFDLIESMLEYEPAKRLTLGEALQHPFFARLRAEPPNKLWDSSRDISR
Experiment [8] addresses Mitogen-activated protein kinase kinase kinase 2 (Homo sapiens) (UniProt Q9Y2U5). As to the kind of experiment: Inhibition of MAP3K2 in human NCI-H929 cells at 10 uM by mass spectroscopic analysis relative to control. The class given is cell-based.
Experiment [9] has as its target Ribosomal protein S6 kinase alpha-1 (Homo sapiens) (UniProt Q15418). Put plainly: Inhibition of RSK1 domain 1 in human NCI-H929 cells at 10 uM by mass spectroscopic analysis relative to control. In kind it is cell-based.
The target of experiment [10] is Casein kinase I isoform gamma-2 (Homo sapiens) (UniProt P78368). As to the kind of experiment: Inhibition of CK1g2 in human NCI-H929 cells at 10 uM by mass spectroscopic analysis relative to control. The class given is cell-based.
Experiment [11] has as its target Serine/threonine-protein kinase 24 (Homo sapiens) (UniProt Q9Y6E0). Put plainly: Inhibition of MST3 in human NCI-H929 cells at 10 uM by mass spectroscopic analysis relative to control. The class given is cell-based.
The target in experiment [12] is Activin receptor type-1 (Homo sapiens) (UniProt Q04771). As to the kind of experiment: Inhibition of ALK2 in human NCI-H929 cells at 10 uM by mass spectroscopic analysis relative to control. In kind it is cell-based.
Sequence of Activin receptor type-1 (Homo sapiens) (Q04771 whole entry): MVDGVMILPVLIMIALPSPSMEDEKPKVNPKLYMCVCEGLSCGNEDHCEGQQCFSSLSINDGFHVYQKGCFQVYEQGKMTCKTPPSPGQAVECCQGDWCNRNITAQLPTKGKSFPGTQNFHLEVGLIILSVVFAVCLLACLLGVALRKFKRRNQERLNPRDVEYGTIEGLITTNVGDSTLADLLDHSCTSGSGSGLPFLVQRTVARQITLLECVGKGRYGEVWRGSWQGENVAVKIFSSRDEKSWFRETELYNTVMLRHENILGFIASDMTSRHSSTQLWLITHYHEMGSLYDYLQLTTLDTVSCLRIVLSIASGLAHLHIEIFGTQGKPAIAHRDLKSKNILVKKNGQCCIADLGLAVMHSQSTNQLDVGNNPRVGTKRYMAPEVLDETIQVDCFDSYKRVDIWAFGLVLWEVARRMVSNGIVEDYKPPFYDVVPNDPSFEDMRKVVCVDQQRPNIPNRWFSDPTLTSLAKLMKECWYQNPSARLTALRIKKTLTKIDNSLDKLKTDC
Experiment [13] has as its target Activin receptor type-1B (Homo sapiens) (UniProt P36896). Put plainly: Inhibition of ALK4 in human NCI-H929 cells at 10 uM by mass spectroscopic analysis relative to control. The class given is cell-based.
Experiment [14] has as its target Activin receptor type-1C (Homo sapiens) (UniProt Q8NER5). Put plainly: Inhibition of ALK7 in human NCI-H929 cells at 10 uM by mass spectroscopic analysis relative to control. In kind it is cell-based.
For experiment [15], the target named is Maternal embryonic leucine zipper kinase (Homo sapiens) (UniProt Q14680). As to the kind of experiment: Inhibition of MELK in human NCI-H929 cells at 10 uM by mass spectroscopic analysis relative to control. The class given is cell-based.
The target in experiment [16] is Interleukin-1 receptor-associated kinase 1 (Homo sapiens) (UniProt P51617). Put plainly: Inhibition of IRAK1 in human NCI-H929 cells at 10 uM by mass spectroscopic analysis relative to control. In kind it is cell-based.
Sequence of Interleukin-1 receptor-associated kinase 1 (Homo sapiens) (P51617 whole entry, looked up): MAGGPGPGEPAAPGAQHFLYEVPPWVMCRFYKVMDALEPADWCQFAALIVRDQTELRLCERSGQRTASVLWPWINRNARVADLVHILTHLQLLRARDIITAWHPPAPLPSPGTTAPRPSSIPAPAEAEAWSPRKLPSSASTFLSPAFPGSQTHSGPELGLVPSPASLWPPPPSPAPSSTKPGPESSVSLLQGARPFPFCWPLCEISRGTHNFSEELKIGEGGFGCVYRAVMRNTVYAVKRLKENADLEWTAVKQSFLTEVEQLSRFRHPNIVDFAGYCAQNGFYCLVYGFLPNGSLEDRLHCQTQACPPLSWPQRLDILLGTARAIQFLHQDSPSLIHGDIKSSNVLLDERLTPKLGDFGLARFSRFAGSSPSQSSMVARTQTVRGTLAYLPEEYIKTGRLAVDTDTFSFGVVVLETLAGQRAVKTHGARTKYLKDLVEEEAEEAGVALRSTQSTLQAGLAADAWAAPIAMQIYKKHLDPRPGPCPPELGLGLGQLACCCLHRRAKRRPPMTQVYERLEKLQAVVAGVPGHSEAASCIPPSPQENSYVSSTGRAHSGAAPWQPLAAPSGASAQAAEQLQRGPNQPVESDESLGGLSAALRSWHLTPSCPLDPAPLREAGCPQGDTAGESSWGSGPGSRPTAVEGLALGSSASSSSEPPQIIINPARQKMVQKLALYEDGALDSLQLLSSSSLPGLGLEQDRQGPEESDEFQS
Experiment [17] addresses Mitogen-activated protein kinase kinase kinase kinase 3 (Homo sapiens) (UniProt Q8IVH8). Put plainly: Inhibition of KHS2 in human NCI-H929 cells at 10 uM by mass spectroscopic analysis relative to control. The class given is cell-based.
In experiment [18] the target is Mitogen-activated protein kinase kinase kinase 3 (Homo sapiens) (UniProt Q99759). Put plainly: Inhibition of MAP3K3 in human NCI-H929 cells at 10 uM by mass spectroscopic analysis relative to control. In kind it is cell-based.
Experiment [19] concerns the target STE20-like serine/threonine-protein kinase (Homo sapiens) (UniProt Q9H2G2). Put plainly: Inhibition of SLK in human NCI-H929 cells at 10 uM by mass spectroscopic analysis relative to control. In kind it is cell-based.
Experiment [20] has as its target Mitogen-activated protein kinase 1 (Homo sapiens) (UniProt P28482). As to the kind of experiment: Inhibition of ERK2 in human NCI-H929 cells at 10 uM by mass spectroscopic analysis relative to control. The class given is cell-based.
The target of experiment [21] is Serine/threonine-protein kinase 10 (Homo sapiens) (UniProt O94804). As to the kind of experiment: Inhibition of LOK in human NCI-H929 cells at 10 uM by mass spectroscopic analysis relative to control. The class given is cell-based.
Experiment [22] deals with Serine/threonine-protein kinase D2 (Homo sapiens) (UniProt Q9BZL6). As to the kind of experiment: Inhibition of PKD2 in human NCI-H929 cells at 10 uM by mass spectroscopic analysis relative to control. The class given is cell-based.
Sequence of Serine/threonine-protein kinase D2 (Homo sapiens) (Q9BZL6 whole entry): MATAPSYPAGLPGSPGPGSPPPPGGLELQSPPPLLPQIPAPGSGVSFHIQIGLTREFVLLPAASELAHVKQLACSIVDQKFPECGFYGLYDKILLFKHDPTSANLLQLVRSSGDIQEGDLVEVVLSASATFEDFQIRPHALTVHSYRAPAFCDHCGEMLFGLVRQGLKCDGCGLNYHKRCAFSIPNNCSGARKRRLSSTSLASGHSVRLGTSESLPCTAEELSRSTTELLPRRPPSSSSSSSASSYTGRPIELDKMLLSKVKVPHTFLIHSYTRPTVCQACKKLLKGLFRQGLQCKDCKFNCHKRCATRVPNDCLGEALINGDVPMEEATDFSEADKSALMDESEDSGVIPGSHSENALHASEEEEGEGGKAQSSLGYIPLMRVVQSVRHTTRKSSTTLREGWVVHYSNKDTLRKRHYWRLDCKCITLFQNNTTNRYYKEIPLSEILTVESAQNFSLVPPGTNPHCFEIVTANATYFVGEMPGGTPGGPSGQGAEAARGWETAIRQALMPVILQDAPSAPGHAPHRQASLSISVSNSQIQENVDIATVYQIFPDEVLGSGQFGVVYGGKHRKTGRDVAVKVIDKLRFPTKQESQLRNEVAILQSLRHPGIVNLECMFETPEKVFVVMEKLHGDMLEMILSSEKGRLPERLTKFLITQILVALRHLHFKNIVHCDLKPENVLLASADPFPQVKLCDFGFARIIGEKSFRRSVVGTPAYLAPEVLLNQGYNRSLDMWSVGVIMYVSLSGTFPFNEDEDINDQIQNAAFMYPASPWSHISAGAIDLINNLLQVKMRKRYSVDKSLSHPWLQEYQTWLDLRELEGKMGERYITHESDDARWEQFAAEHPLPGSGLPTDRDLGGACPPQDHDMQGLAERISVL
Experiment [23] deals with Serine/threonine-protein kinase D3 (Homo sapiens) (UniProt O94806). As to the kind of experiment: Inhibition of PKD3 in human NCI-H929 cells at 10 uM by mass spectroscopic analysis relative to control. In kind it is cell-based.
Experiment [24] concerns the target Glycogen synthase kinase-3 alpha (Homo sapiens) (UniProt P49840). As to the kind of experiment: Inhibition of GSK3A in human NCI-H929 cells at 10 uM by mass spectroscopic analysis relative to control. In kind it is cell-based.
Experiment [25] concerns the target Glycogen synthase kinase-3 beta (Homo sapiens) (UniProt P49841). As to the kind of experiment: Inhibition of GSK3B in human NCI-H929 cells at 10 uM by mass spectroscopic analysis relative to control. The class given is cell-based.
The target in experiment [26] is Scaffold protein ILK (Homo sapiens) (UniProt Q13418). As to the kind of experiment: Inhibition of ILK in human NCI-H929 cells at 10 uM by mass spectroscopic analysis relative to control. The class given is cell-based.
Experiment [27] deals with Dual specificity mitogen-activated protein kinase kinase 7 (Homo sapiens) (UniProt O14733). Put plainly: Inhibition of MAP2K7 in human NCI-H929 cells at 10 uM by mass spectroscopic analysis relative to control. In kind it is cell-based.
Experiment [28] has as its target Mitogen-activated protein kinase kinase kinase 1 (Homo sapiens) (UniProt Q13233). Put plainly: Inhibition of MAP3K1 in human NCI-H929 cells at 10 uM by mass spectroscopic analysis relative to control. In kind it is cell-based.
The target of experiment [29] is Mitogen-activated protein kinase kinase kinase 11 (Homo sapiens) (UniProt Q16584). Put plainly: Inhibition of MLK3 in human NCI-H929 cells at 10 uM by mass spectroscopic analysis relative to control. In kind it is cell-based.
Experiment [30] deals with Serine/threonine-protein kinase Nek9 (Homo sapiens) (UniProt Q8TD19). Put plainly: Inhibition of NEK9 in human NCI-H929 cells at 10 uM by mass spectroscopic analysis relative to control. The class given is cell-based.
Experiment [31] addresses Phosphatidylinositol 5-phosphate 4-kinase type-2 gamma (Homo sapiens) (UniProt Q8TBX8). As to the kind of experiment: Inhibition of PIP4K2C in human NCI-H929 cells at 10 uM by mass spectroscopic analysis relative to control. In kind it is cell-based.
Experiment [32] concerns the target 1-phosphatidylinositol 3-phosphate 5-kinase (Homo sapiens) (UniProt Q9Y2I7). Put plainly: Inhibition of PIP5K3 in human NCI-H929 cells at 10 uM by mass spectroscopic analysis relative to control. In kind it is cell-based.
The target in experiment [33] is Protein kinase C zeta type (Homo sapiens) (UniProt Q05513). As to the kind of experiment: Inhibition of PKCz in human NCI-H929 cells at 10 uM by mass spectroscopic analysis relative to control. In kind it is cell-based.

Sequence of STE20-like serine/threonine-protein kinase (Homo sapiens) (Q9H2G2 whole entry, looked up): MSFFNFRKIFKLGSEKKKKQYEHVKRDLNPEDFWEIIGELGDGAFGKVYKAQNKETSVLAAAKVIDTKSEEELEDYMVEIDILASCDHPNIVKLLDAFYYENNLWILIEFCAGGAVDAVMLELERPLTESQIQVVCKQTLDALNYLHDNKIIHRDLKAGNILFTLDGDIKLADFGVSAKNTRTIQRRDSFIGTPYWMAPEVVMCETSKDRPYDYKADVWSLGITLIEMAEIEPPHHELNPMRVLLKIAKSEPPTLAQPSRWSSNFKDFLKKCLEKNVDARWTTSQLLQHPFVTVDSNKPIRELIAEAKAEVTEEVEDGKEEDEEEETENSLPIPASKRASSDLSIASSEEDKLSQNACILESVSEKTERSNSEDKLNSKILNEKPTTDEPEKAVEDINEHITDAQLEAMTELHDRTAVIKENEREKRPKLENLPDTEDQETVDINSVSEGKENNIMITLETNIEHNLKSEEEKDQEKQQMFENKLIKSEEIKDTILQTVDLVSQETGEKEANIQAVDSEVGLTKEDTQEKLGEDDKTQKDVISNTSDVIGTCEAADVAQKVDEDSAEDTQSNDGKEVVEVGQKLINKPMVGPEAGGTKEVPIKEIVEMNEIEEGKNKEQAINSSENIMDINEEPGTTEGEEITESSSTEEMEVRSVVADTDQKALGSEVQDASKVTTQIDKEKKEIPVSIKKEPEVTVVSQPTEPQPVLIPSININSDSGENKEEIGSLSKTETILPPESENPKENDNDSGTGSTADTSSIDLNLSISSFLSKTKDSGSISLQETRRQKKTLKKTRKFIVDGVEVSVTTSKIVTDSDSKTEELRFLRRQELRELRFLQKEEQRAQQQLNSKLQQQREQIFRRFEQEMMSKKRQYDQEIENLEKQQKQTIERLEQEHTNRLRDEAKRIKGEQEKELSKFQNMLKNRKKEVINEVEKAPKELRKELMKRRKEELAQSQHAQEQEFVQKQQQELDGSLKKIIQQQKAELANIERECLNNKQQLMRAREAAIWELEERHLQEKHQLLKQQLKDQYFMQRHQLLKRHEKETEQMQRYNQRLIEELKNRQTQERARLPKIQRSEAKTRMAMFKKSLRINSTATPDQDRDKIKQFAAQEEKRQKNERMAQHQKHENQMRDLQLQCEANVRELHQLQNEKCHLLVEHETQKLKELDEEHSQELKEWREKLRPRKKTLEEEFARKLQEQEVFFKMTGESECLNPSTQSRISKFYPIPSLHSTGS
Sequence of Casein kinase I isoform delta (Homo sapiens) (P48730 whole entry, looked up, canonical isoform): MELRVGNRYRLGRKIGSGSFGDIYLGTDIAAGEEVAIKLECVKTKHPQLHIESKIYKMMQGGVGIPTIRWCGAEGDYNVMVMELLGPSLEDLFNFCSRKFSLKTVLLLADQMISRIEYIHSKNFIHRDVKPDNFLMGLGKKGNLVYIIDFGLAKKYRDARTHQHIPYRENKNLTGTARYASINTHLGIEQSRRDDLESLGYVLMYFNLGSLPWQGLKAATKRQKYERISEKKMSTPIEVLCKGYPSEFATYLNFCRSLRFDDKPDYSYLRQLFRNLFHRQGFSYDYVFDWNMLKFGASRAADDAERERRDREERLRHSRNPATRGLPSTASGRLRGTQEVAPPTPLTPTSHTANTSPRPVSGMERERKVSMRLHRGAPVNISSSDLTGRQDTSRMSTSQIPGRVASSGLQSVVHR
Sequence of Serine/threonine-protein kinase 24 (Homo sapiens) (Q9Y6E0 whole entry, looked up): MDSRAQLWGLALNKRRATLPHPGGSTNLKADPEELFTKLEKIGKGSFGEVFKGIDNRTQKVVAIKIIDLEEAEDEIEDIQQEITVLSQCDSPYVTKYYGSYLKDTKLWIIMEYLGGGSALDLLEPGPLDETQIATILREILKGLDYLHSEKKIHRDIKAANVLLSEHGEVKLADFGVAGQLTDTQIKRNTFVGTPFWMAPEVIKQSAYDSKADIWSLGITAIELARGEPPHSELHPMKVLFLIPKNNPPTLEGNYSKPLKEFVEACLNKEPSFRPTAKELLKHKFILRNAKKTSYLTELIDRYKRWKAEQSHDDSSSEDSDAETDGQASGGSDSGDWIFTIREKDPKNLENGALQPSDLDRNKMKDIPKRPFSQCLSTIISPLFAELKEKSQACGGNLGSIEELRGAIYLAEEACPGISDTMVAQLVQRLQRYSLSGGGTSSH
Sequence of Mitogen-activated protein kinase 1 (Homo sapiens) (P28482 whole entry): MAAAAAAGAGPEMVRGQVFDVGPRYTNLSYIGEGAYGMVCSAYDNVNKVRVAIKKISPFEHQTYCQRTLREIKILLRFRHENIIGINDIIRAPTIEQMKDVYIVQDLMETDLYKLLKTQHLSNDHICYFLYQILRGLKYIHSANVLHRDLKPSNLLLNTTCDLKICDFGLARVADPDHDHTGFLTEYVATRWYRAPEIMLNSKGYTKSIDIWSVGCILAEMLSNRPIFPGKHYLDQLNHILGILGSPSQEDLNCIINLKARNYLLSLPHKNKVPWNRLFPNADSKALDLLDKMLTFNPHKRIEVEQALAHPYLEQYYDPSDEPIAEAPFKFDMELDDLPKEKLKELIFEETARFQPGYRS

For the compound `Nc1ncc(-c2cccc([N+](=O)[O-])c2F)cc1-c1ccc2c(c1)CCNC2=O`, the values for the Activity in the experiment with MM1.S [1] and in the experiment with MM1.S [2] were 25.05% and 29.41%, respectively. The result in the experiment on NCI-H929 [3] and in the experiment on NCI-H929 [4] was Active. For the same compound, the inhibition is above 90% in experiment [5]; above 90% in [6]; 0% in experiment [7]; below 50% in experiment [8]; below 75% in experiment [9].
For `Nc1ncc(-c2ccc(NS(=O)(=O)C3CC3)cc2OC2CCCCC2)cc1-c1ccc2c(c1)CCNC2=O`, the inhibition in [10] was 50%; in [7], 50%; in experiment [11], above 90%; in [9], below 75%; in experiment [12], above 90%; in [13] it was above 90%. The inhibition is above 90% in [14] and 50% in experiment [15].
Take `CN(C1CC1)S(=O)(=O)c1ccc(-c2cnc(N)c(-c3ccc4c(c3)CCNC4=O)c2)c(F)c1`: the inhibition in experiment [5] was 50%; in [6], 50%; in experiment [16], 50%; in [17], 50%; in experiment [18], 0%; in [11], 50%. Besides, the inhibition in experiment [19] amounted to 50%.
With `Nc1ncc(-c2cccc3ncsc23)cc1-c1ccc2c(c1)CCNC2=O`, the inhibition in experiment [20] came out at 50%; in [21], 50%; in experiment [18] it was 0%; in experiment [22], 50%; in [23] it was 50%.
Turning to `COc1cc(NS(=O)(=O)C2CC2)ccc1-c1cnc(N)c(-c2ccc3c(c2)CCNC3=O)c1`, the inhibition was 75% in experiment [10]; 75% in [24]; above 90% in [25]; 50% in experiment [26]; 0% in experiment [16]; 0% in [21]. Moreover, the inhibition in [27] stood at 75%; in experiment [28], 0%; in experiment [29] it was 0%; in [30], 50%; in experiment [31], 75%; in experiment [32], 0%. Moreover, the inhibition in [33] stood at 50%; in [22], 50%; in experiment [23], 0%; in experiment [19] it was 50%; in experiment [12], 75%; in experiment [13] it was 75%. The inhibition in experiment [14] stood at 75%.

In general, inhibition refers to the relative decrease from the control value, in per cent.

For the origin of these results see ChEMBL document CHEMBL4804281, “STK4 inhibitors for treatment of hematologic malignancies” (2020).
